Measurements published in patent EP4806435A1, “DIHYDROCHROMENE-DERIVATIVE-CONTAINING THERAPEUTIC AGENT FOR CANCER” (Sumitomo Pharma Co., Ltd., priority 2023, dated 2025).
Read-outs that look alike come from different tables or passages of the source.

Assay: Phase 1 clinical trial: plasma pharmacokinetics
Assay type: in vivo, human
Conditions: for Tmax / half-life / Cmax / AUC / AUC(0-t): human, plasma, oral; for half-life: read-out: Effective T1/2 (converted)
Protocol: Summary statistics based on preliminary data were obtained for the pharmacokinetics of Compound 1 in patients receiving once-daily doses ranging from 20 mg to 240 mg (Table 5). The mean plasma concentration-time curves of Compound 1 in the once-daily dose groups ranging from 20 mg to 240 mg are shown in Figure 11. In this study, one cycle consists of 28 days, and Cycle 1 Day 1 refers to Day 1 of the first cycle. […] Accumulation was observed after repeated administration. […] Based on these accumulation ratios, the half-life of Compound 1 was estimated to be approximately 4 days. Based on the currently available data, plasma concentrations are considered to have reached steady state by Day 15.
Summary statistics based on preliminary data were obtained for the pharmacokinetics of Compound 1 in patients in the 20 mg QD, 40 mg QD, 80 mg QD, 120 mg QD, 180 mg QD, 240 mg QD, 360 mg QD, and 480 mg daily (240 mg BID) dose groups (Table 6). The mean plasma concentration-time curves of Compound 1 in the 20 mg QD to 480 mg daily (240 mg BID) dose groups are shown in Figure 12 (in Figure 12, Compound 1 is denoted as "DSP-0390"). In this study, one cycle consists of 28 days, and Cycle 1 Day 1 refers to Day 1 of the first cycle. […] The median Tmax ranged from 2 to 8 hours. Accumulation was observed after repeated administration, and assuming linearity based on the observed accumulation ratios, the estimated elimination half-life was considered to be on the order of several days (approximately 1 to 6 days) (data cut-off: March 2024).

[1] = repeated administration, 20 mg to 240 mg once daily, cut-off April 2023

**Q.** For `CC1(C)Oc2cc(Cl)ccc2[C@@H]2OCC3(CCN(CCn4ccnc4)CC3)C[C@H]21` [Compound 1, (4'aR,10'bR)-8'-chloro-1-[2-(1H-imidazol-1-yl)ethyl]-5',5'-dimethyl-4'a,10'b-dihydro-2'H,4'H,5'H-spiro[piperidine-4,3'-pyrano[3,2-c][1]benzopyran] diphosphate], which Tmax (180 mg, Cycle 2 Day 1, 180 mg, QD, cut-off April 2023, read-out: Tmax (median)) is on record?
**A.** Its Tmax is 7 h.

**Q.** And the half-life (240 mg, 240 mg QD, cut-off March 2024)?
**A.** Its half-life is 45.6 h.

**Q.** And the half-life (240 mg, 480 mg (240 mg BID), cut-off March 2024)?
**A.** Its half-life is 16.8 h.

**Q.** What about the Cmax (240 mg, Cycle 1, Day 1, 240 mg QD, cut-off March 2024, read-out: Cmax) of the same molecule?
**A.** Its Cmax is 177 ng/mL.

**Q.** And the Tmax (240 mg, Cycle 1, Day 1, 240 mg QD, cut-off March 2024, read-out: Tmax [a] median value)?
**A.** Its Tmax is 2 h.

**Q.** And the AUC (240 mg, Cycle 1, Day 1, 240 mg QD, tau = 24 hours, cut-off March 2024, read-out: AUCtau [b])?
**A.** The AUC was 1620 ng·h/mL.

**Q.** What about the Cmax (240 mg, Cycle 1, Day 1, 480 mg (240 mg BID), cut-off March 2024, read-out: Cmax) of the same molecule?
**A.** The Cmax was 143 ng/mL.

**Q.** And the Tmax (240 mg, Cycle 1, Day 1, 480 mg (240 mg BID), cut-off March 2024, read-out: Tmax [a] median value)?
**A.** The Tmax was 4 h.

**Q.** What about the AUC (240 mg, Cycle 1, Day 1, 480 mg (240 mg BID), n=1, tau = 12 hours, cut-off March 2024, read-out: AUCtau [b]) of the same molecule?
**A.** Its AUC is 1980 ng·h/mL.

**Q.** What about the AUC(0-t) (240 mg, Cycle 1 Day 1, 240 mg, QD, cut-off April 2023, read-out: AUC0-24 (geometric mean)) of the same molecule?
**A.** The AUC(0-t) was 1480 ng·h/mL.

**Q.** What about the AUC(0-t) (240 mg, Cycle 1 Day 1, 240 mg, QD, cut-off April 2023, read-out: AUC0-24 (mean)) of the same molecule?
**A.** Its AUC(0-t) is 1510 ng·h/mL.

**Q.** And the AUC(0-t) (240 mg, Cycle 1 Day 1, 240 mg, QD, cut-off April 2023, read-out: AUC0-24 (median))?
**A.** Its AUC(0-t) is 1620 ng·h/mL.

**Q.** And the Cmax (240 mg, Cycle 1 Day 1, 240 mg, QD, cut-off April 2023, read-out: Cmax (geometric mean))?
**A.** Its Cmax is 145 ng/mL.

**Q.** And the Cmax (240 mg, Cycle 1 Day 1, 240 mg, QD, cut-off April 2023, read-out: Cmax (mean))?
**A.** Its Cmax is 153 ng/mL.

**Q.** What about the Cmax (240 mg, Cycle 1 Day 1, 240 mg, QD, cut-off April 2023, read-out: Cmax (median)) of the same molecule?
**A.** The Cmax was 148 ng/mL.

**Q.** What about the Tmax (240 mg, Cycle 1 Day 1, 240 mg, QD, cut-off April 2023, read-out: Tmax (mean)) of the same molecule?
**A.** Its Tmax is 3 h.

**Q.** And the Tmax (240 mg, Cycle 1 Day 1, 240 mg, QD, cut-off April 2023, read-out: Tmax (median))?
**A.** Its Tmax is 2 h.

**Q.** And the Cmax (240 mg, Cycle 2, Day 1, 240 mg QD, cut-off March 2024, read-out: Cmax,ss)?
**A.** Its Cmax is 316 ng/mL.

**Q.** What about the Tmax (240 mg, Cycle 2, Day 1, 240 mg QD, cut-off March 2024, read-out: Tmax,ss [a] median value) of the same molecule?
**A.** Its Tmax is 5 h.

**Q.** What about the AUC (240 mg, Cycle 2, Day 1, 240 mg QD, tau = 24 hours, cut-off March 2024, read-out: AUCtau,ss [b]) of the same molecule?
**A.** The AUC was 5330 ng·h/mL.

**Q.** What about the Cmax (240 mg, Cycle 2, Day 1, 480 mg (240 mg BID), cut-off March 2024, read-out: Cmax,ss) of the same molecule?
**A.** Its Cmax is 346 ng/mL.

**Q.** What about the Tmax (240 mg, Cycle 2, Day 1, 480 mg (240 mg BID), cut-off March 2024, read-out: Tmax,ss [a] median value) of the same molecule?
**A.** Its Tmax is 7 h.

**Q.** What about the AUC (240 mg, Cycle 2, Day 1, 480 mg (240 mg BID), n=1, tau = 12 hours, cut-off March 2024, read-out: AUCtau,ss [b]) of the same molecule?
**A.** The AUC was 3180 ng·h/mL.

**Q.** What about the AUC(0-t) (240 mg, Cycle 2 Day 1, 240 mg, QD, N=1, cut-off April 2023, read-out: AUC0-24 (geometric mean)) of the same molecule?
**A.** The AUC(0-t) was 6670 ng·h/mL.

**Q.** And the AUC(0-t) (240 mg, Cycle 2 Day 1, 240 mg, QD, N=1, cut-off April 2023, read-out: AUC0-24 (mean))?
**A.** The AUC(0-t) was 6670 ng·h/mL.

**Q.** What about the AUC(0-t) (240 mg, Cycle 2 Day 1, 240 mg, QD, N=1, cut-off April 2023, read-out: AUC0-24 (median)) of the same molecule?
**A.** Its AUC(0-t) is 6670 ng·h/mL.

**Q.** And the Cmax (240 mg, Cycle 2 Day 1, 240 mg, QD, cut-off April 2023, read-out: Cmax (geometric mean))?
**A.** The Cmax was 359 ng/mL.

**Q.** What about the Cmax (240 mg, Cycle 2 Day 1, 240 mg, QD, cut-off April 2023, read-out: Cmax (mean)) of the same molecule?
**A.** Its Cmax is 360 ng/mL.

**Q.** And the Cmax (240 mg, Cycle 2 Day 1, 240 mg, QD, cut-off April 2023, read-out: Cmax (median))?
**A.** The Cmax was 360 ng/mL.

**Q.** What about the Tmax (240 mg, Cycle 2 Day 1, 240 mg, QD, cut-off April 2023, read-out: Tmax (mean)) of the same molecule?
**A.** Its Tmax is 7 h.

**Q.** What about the Tmax (240 mg, Cycle 2 Day 1, 240 mg, QD, cut-off April 2023, read-out: Tmax (median)) of the same molecule?
**A.** The Tmax was 7 h.

**Q.** And the half-life (360 mg, 360 mg QD, cut-off March 2024)?
**A.** Its half-life is 24 h.

**Q.** And the Cmax (360 mg, Cycle 1, Day 1, 360 mg QD, cut-off March 2024, read-out: Cmax)?
**A.** Its Cmax is 359 ng/mL.

**Q.** What about the Tmax (360 mg, Cycle 1, Day 1, 360 mg QD, cut-off March 2024, read-out: Tmax [a] median value) of the same molecule?
**A.** Its Tmax is 4 h.

**Q.** What about the AUC (360 mg, Cycle 1, Day 1, 360 mg QD, tau = 24 hours, cut-off March 2024, read-out: AUCtau [b]) of the same molecule?
**A.** Its AUC is 4110 ng·h/mL.

**Q.** What about the Cmax (360 mg, Cycle 2, Day 1, 360 mg QD, cut-off March 2024, read-out: Cmax,ss) of the same molecule?
**A.** Its Cmax is 489 ng/mL.

**Q.** What about the Tmax (360 mg, Cycle 2, Day 1, 360 mg QD, cut-off March 2024, read-out: Tmax,ss [a] median value) of the same molecule?
**A.** The Tmax was 4 h.

**Q.** What about the AUC (360 mg, Cycle 2, Day 1, 360 mg QD, tau = 24 hours, cut-off March 2024, read-out: AUCtau,ss [b]) of the same molecule?
**A.** The AUC was 8490 ng·h/mL.

**Q.** And the AUC(0-t) (Cycle 1 Day 1, 20 mg to 240 mg once daily, cut-off April 2023, read-out: geometric mean of AUC0-24, range over all dose groups)?
**A.** Its AUC(0-t) is 76 to 1480 ng·h/mL.

**Q.** What about the Cmax (Cycle 1 Day 1, 20 mg to 240 mg once daily, cut-off April 2023, read-out: geometric mean of Cmax, range over all dose groups) of the same molecule?
**A.** The Cmax was 4 to 145 ng/mL.

**Q.** And the Tmax (Cycle 1 Day 1, 20 mg to 240 mg once daily, cut-off April 2023, read-out: median Tmax, range over all dose groups)?
**A.** The Tmax was 2 to 8 h.

**Q.** What about the AUC(0-t) (Cycle 2 Day 1, 20 mg to 240 mg once daily, cut-off April 2023, read-out: geometric mean of AUC0-24, range over all dose groups) of the same molecule?
**A.** The AUC(0-t) was 556 to 6670 ng·h/mL.

**Q.** What about the Cmax (Cycle 2 Day 1, 20 mg to 240 mg once daily, cut-off April 2023, read-out: geometric mean of Cmax, range over all dose groups) of the same molecule?
**A.** Its Cmax is 27.7 to 359 ng/mL.

**Q.** And the Tmax (Cycle 2 Day 1, 20 mg to 240 mg once daily, cut-off April 2023, read-out: median Tmax, range over all dose groups)?
**A.** The Tmax was 2 to 7 h.

**Q.** What about the “plasma concentrations reached steady state” value (once-daily dosing, cut-off April 2023) of the same molecule?
**A.** Its value is at most 15 days.

**Q.** What about the “dose dependence of exposure” value (range of 20 mg to 360 mg QD) of the same molecule?
**A.** The value was “increased in a dose-dependent manner”.

**Q.** And the “mean accumulation ratio for AUC0-24, range over dose groups” value [1]?
**A.** Its value is 3.9-8.6.

**Q.** What about the “mean accumulation ratio for Cmax, range over dose groups” value [1] of the same molecule?
**A.** The value was 2.6-6.2.
